This assay has as its system rhizogenic calli derived from leaf explants. Nature of the assay: adventitious shoot bud formation on rhizogenic calli derived from tea leaf explants. The assay is classed as cell-based, Camellia sinensis. Conditions: rhizogenic calli transferred to auxin free MS medium with 0.5 to 8 mg/l 6 Benzyl amino purine.

Experimental: iv) For adventitious shoot bud formation, the rhizogenic callus cultures obtained from step (iii) were transferred to (0.8%) agar solidified basal MS medium supplemented with 6 Benzyl amino purine (0.5 to 8.0 mg/l) and 3% sucrose.
After 4-10 weeks, the rhizogenic callus was transferred to (0.8%) agar solidified basal MS medium supplemented with 3% sucrose and 0.5 to 8.0 mg/l 6 Benzyl amino purine for adventitious shoot bud formation.

On to `c1ccc(CNc2ncnc3nc[nH]c23)cc1` [6 Benzyl amino purine], for which the “adventitious shoot bud development” value is listed as “more than 30%” and the “explants responding (leaf explant response)” value is given as roughly 100%.

Source of the values: patent publication US6599743B2, “Method for microproduction of tea plants from leaf explants” (Council of Scientific & Industrial Research, priority 2001, dated 2003).
